# Source: patent US20240025907A1, “QUINAZOLINE PAN-KRas INHIBITORS” (Mirati Therapeutics, Inc., priority 2022, published 2024)
# Like-named read-outs stand apart in the source and are kept apart here.
# Assays:
# [1] = test system: KRas-mediated Phosphorylation of ERK in H2009 cells; test: Cisbio HTRF pERK assay, H2009 cells; format: cell-based; details: read-out: Inhibition (HTRF IC50 nM) of KRas-mediated Phosphorylation of ERK, H2009
# [2] = test system: KRas-mediated Phosphorylation of ERK in MKN1 cells; test: Cisbio HTRF pERK assay, MKN1 cells; format: cell-based; details: Homo sapiens, MKN-1, 3 hour compound, read-out: Inhibition (HTRF IC50 nM) of KRas-mediated Phosphorylation of ERK, MKN1
# Protocol: (§1) Inhibition of KRas Phosphorylation of ERK (HTRF) by Exemplary Compounds of Formula (I) • Cisbio HTRF Advanced pERK Assay Catalog #64AERPEH • Cell: MKN1, PSN1 • Procedure: • Day 1: Seed 6,000 cells/well −25 μl/well in 384-well white solid bottom plate; RPM1_10% FBS.
# [3] = test system: KRas-mediated Phosphorylation of ERK in PSN1 cells; test: Cisbio HTRF pERK assay, PSN1 cells; format: cell-based; details: 3 hour compound, read-out: Inhibition (HTRF IC50 nM) of KRas-mediated Phosphorylation of ERK, PSN1
# Protocol: as §1
# [4] = test system: KRas-mediated Phosphorylation of ERK in A549 cells; test: Cisbio HTRF pERK assay, A549 cells; format: cell-based; details: A549 cells, 3 hrs compound, read-out: Inhibition (HTRF IC50 nM) of KRas-mediated Phosphorylation of ERK, A549
# [5] = test system: KRas-mediated Phosphorylation of ERK in H727 cells; test: Cisbio HTRF pERK assay, H727 cells; format: cell-based; details: 3 hrs compound, read-out: Inhibition (HTRF IC50 nM) of KRas-mediated Phosphorylation of ERK, H727
# [6] = test system: KRas-mediated Phosphorylation of ERK in AsPC-1 cells; test: Cisbio HTRF pERK assay, AsPC-1 cells; format: cell-based; details: 3 hrs compound, read-out: Inhibition (HTRF IC50 nM) of KRas-mediated Phosphorylation of ERK, AsPC-1
# [7] = test system: KRas-mediated Phosphorylation of ERK in H358 cells; test: Cisbio HTRF pERK assay, H358 cells; format: cell-based; details: H358 cells, 3 hrs compound, read-out: Inhibition (HTRF IC50 nM) of KRas-mediated Phosphorylation of ERK, H358
# [8] = test system: KRas-mediated Phosphorylation of ERK in HCT116 cells; test: Cisbio HTRF pERK assay, HCT116 cells; format: cell-based; details: HCT116 cells, 3 hrs compound, read-out: Inhibition (HTRF IC50 nM) of KRas-mediated Phosphorylation of ERK, HCT116
# [9] = test system: KRas-mediated Phosphorylation of ERK in H460 cells; test: Cisbio HTRF pERK assay, H460 cells; format: cell-based; details: H460 cells, 3 hrs compound, read-out: Inhibition (HTRF IC50 nM) of KRas-mediated Phosphorylation of ERK, H460
# [10] = molecular target: T1, KRas^G12S (Homo sapiens, UniProt P01116, G12S); test: KRas TR-FRET tracer displacement binding assay, G12S; details: 60-minute incubation
# T1 construct: Biotinylated KRas (corresponding to amino acids 1-169, produced at Accelegan Inc.); biotin (biotinylated); purchased Accelegan Inc
# T1 sequence (P01116 1-169 isoform P01116-2 G12S): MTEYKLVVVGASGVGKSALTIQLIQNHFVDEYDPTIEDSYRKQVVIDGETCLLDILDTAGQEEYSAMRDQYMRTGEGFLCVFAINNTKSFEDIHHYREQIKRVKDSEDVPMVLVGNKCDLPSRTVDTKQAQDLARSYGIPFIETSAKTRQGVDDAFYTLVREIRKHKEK
# Protocol: (§2) KRas^WT, KRas^G12A, KRas^G12C, KRas^G12D, KRas^G12R, KRas^G12S, KRas^G12V, KRas^G13D, or KRas^Q61H was used in the assay.
# (§3) The ability of a compound to bind to KRas was measured using a TR-FRET displacement assay. Biotinylated KRas (corresponding to amino acids 1-169, produced at Accelegan Inc.) was incubated with custom made Cy5 labelled tracer, terbium streptavidin (Cisbio Inc.) and compound (1% DMSO final) in buffer (50 mM HEPES, pH 7.5, 5 mM MgCl2, 0.005% Tween-20 and 1 mM DTT). After a 60-minute incubation at room temperature, the reaction was measured using a BMG LABTECH CLARIO star Plus via TR-FRET.
# [11] = molecular target: T2, KRas^G12V (Homo sapiens, UniProt P01116, G12V); test: KRas TR-FRET tracer displacement binding assay, G12V; details: 60-minute incubation
# T2 construct: Biotinylated KRas (corresponding to amino acids 1-169, produced at Accelegan Inc.); biotin (biotinylated); purchased Accelegan Inc
# T2 sequence (P01116 1-169 isoform P01116-2 G12V): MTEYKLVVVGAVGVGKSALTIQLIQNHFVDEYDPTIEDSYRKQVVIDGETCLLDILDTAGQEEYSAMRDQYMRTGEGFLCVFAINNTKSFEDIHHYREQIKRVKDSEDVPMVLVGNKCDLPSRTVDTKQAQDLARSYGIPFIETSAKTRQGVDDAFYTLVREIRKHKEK
# Protocol: as §2, §3
# [12] = molecular target: T3, KRas^WT (Homo sapiens, UniProt P01116); test: KRas TR-FRET tracer displacement binding assay, WT; details: 60-minute incubation
# T3 construct: Biotinylated KRas (corresponding to amino acids 1-169, produced at Accelegan Inc.); biotin (biotinylated); purchased Accelegan Inc
# T3 sequence (P01116 1-169 isoform P01116-2): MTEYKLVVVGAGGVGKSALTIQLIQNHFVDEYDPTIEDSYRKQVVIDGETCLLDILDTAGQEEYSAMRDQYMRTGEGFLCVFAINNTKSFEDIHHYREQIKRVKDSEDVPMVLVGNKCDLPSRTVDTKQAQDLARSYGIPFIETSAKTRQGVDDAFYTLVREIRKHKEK
# Protocol: as §2, §3
# [13] = molecular target: T4, KRas^G12D (Homo sapiens, UniProt P01116, G12D); test: KRas TR-FRET tracer displacement binding assay, G12D; details: 60-minute incubation
# T4 construct: Biotinylated KRas (corresponding to amino acids 1-169, produced at Accelegan Inc.); biotin (biotinylated); purchased Accelegan Inc
# T4 sequence (P01116 1-169 isoform P01116-2 G12D): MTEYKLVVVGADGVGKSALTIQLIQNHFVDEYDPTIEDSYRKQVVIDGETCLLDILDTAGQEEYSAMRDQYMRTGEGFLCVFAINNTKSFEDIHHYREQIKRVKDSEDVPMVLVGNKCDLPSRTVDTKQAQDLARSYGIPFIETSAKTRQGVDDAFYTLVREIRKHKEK
# Protocol: as §2, §3
# [14] = molecular target: T5, KRas^G12C (Homo sapiens, UniProt P01116, G12C); test: KRas TR-FRET tracer displacement binding assay, G12C; details: 60-minute incubation
# T5 construct: Biotinylated KRas (corresponding to amino acids 1-169, produced at Accelegan Inc.); biotin (biotinylated); purchased Accelegan Inc
# T5 sequence (P01116 1-169 isoform P01116-2 G12C): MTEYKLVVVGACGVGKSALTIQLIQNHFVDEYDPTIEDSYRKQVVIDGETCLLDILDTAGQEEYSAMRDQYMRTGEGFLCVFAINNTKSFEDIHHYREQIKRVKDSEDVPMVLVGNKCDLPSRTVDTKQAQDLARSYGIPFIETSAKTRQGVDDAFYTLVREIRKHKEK
# Protocol: as §2, §3
# [15] = Homo sapiens, NCI-H2009, H2009 cells
SMILES,"IC50 [1, 15] [nM]",IC50 [2] [nM],"IC50 ([3]; Homo sapiens, PSN1, 3 h) [nM]","IC50 ([4]; Homo sapiens, A549, 3 h) [nM]",IC50 [5] [nM],IC50 [6] [nM],"IC50 ([7]; Homo sapiens, NCI-H358, 3 h) [nM]","IC50 ([8]; Homo sapiens, HCT-116, 3 h) [nM]","IC50 ([9]; Homo sapiens, NCI-H460, 3 h) [nM]",IC50 [10] [nM],IC50 [4] [nM],IC50 [11] [nM],IC50 [12] [nM],IC50 [13] [nM],IC50 [14] [nM],IC50 [7] [nM],IC50 [8] [nM],IC50 [9] [nM],"IC50 ([5]; Homo sapiens, NCI-H727, 3 h) [nM]","IC50 ([6]; Homo sapiens, ASPC1, 3 h) [nM]",further results
"C[C@@]1(O)COCCN(c2nc(OC[C@@]34CCCN3C[C@H](F)C4)nc3c(F)c(-c4ccc(F)c5sc(N)c(C#N)c45)c(Cl)cc23)C1 (atropisomer, axis not shown; (aS)) [Example 192, 2-amino-4-((R)-6-chloro-8-fluoro-2-(((2R,7aS)-2-fluorotetrahydro-1H-pyrrolizin-7a(5H)-yl)methoxy)-4-((S)-6-hydroxy-6-methyl-1,4-oxazepan-4-yl)quinazolin-7-yl)-7-fluorobenzo[b]thiophene-3-carbonitrile]",1,1,260,8,5,3,1,12,4,–,–,–,–,–,–,–,–,–,–,–,–
"Cc1c(F)c(N)nc(-c2c(Cl)cc3c(NC(C)c4cccnc4N)nc(OC[C@@]45CCCN4C[C@H](F)C5)nc3c2F)c1C(F)(F)F (single isomer, unassigned; isomer 1) [Example 172]",–,–,–,–,111,794,–,–,–,3,111,3,11,34,< 2,15,841,182,–,–,IC50 ([1]; H2009 cells): 8 nM; IC50 [3]: 4290 nM
"Cc1c(F)c(N)nc(-c2c(Cl)cc3c(NC(C)c4cccnc4N)nc(OC[C@@]45CCCN4C[C@H](F)C5)nc3c2F)c1C(F)(F)F (single isomer, unassigned; isomer 2) [Example 173]",–,–,–,–,252,1890,–,–,–,331,244,430,751,661,454,95,2900,511,–,–,IC50 ([1]; H2009 cells): 40 nM; IC50 [3]: > 10000 nM
"N#Cc1c(N)sc2c(F)ccc(-c3c(Cl)cc4c(N5CC6CCC(C5)N6)nc(OC[C@@]56CCCN5C/C(=C\F)C6)nc4c3F)c12 [Example 180, (R)-4-(4-((1R,5S)-3,8-diazabicyclo[3.2.1]octan-3-yl)-6-chloro-8-fluoro-2-(((S,Z)-2-(fluoromethylene)tetrahydro-1H-pyrrolizin-7a(5H)-yl)methoxy)quinazolin-7-yl)-2-amino-7-fluorobenzo[b]thiophene-3-carbonitrile]",40,10,1370,–,512,1,–,–,–,–,139,–,–,–,–,54,72,81,–,–,–

# The next lines start with results.
"IC50 [1, 15] [nM]",IC50 [2] [nM],"IC50 ([3]; Homo sapiens, PSN1, 3 h) [nM]","IC50 ([4]; Homo sapiens, A549, 3 h) [nM]",IC50 [5] [nM],IC50 [6] [nM],"IC50 ([7]; Homo sapiens, NCI-H358, 3 h) [nM]","IC50 ([8]; Homo sapiens, HCT-116, 3 h) [nM]","IC50 ([9]; Homo sapiens, NCI-H460, 3 h) [nM]",IC50 [10] [nM],IC50 [4] [nM],IC50 [11] [nM],IC50 [12] [nM],IC50 [13] [nM],IC50 [14] [nM],IC50 [7] [nM],IC50 [8] [nM],IC50 [9] [nM],"IC50 ([5]; Homo sapiens, NCI-H727, 3 h) [nM]","IC50 ([6]; Homo sapiens, ASPC1, 3 h) [nM]",SMILES,further results
15,–,1690,68,–,–,9,83,47,2,–,< 2,2,7,4,–,–,–,27,93,"N#Cc1c(N)sc2c(F)ccc(-c3c(Cl)cc4c(N5CCC5CO)nc(OC[C@@]56CCCN5C[C@H](F)C6)nc4c3F)c12 (stereo partly drawn) [Example 209, 2-amino-4-(6-chloro-8-fluoro-2-(((2R,7aS)-2-fluorotetrahydro-1H-pyrrolizin-7a(5H)-yl)methoxy)-4-(2-(hydroxymethyl)azetidin-1-yl)quinazolin-7-yl)-7-fluorobenzo[b]thiophene-3-carbonitrile]",–
4690,739,> 10000,> 10000,–,–,982,> 10000,5060,–,–,–,–,–,–,–,–,–,> 10000,> 10000,"N#Cc1c(N)sc2c(F)ccc(-c3c(F)cc4c(NCc5cn[nH]c5)nc(OC[C@@]56CCCN5C[C@H](F)C6)nc4c3F)c12 [Example 214, 4-(4-(((1H-pyrazol-4-yl)methyl)amino)-6,8-difluoro-2-(((2R,7aS)-2-fluorotetrahydro-1H-pyrrolizin-7a(5H)-yl)methoxy)quinazolin-7-yl)-2-amino-7-fluorobenzo[b]thiophene-3-carbonitrile]",–
508,266,> 10000,3340,–,–,370,2250,1120,–,–,–,–,–,–,–,–,–,1070,2900,"N#Cc1c(N)sc2c(F)ccc(-c3c(Cl)cc4c(N5CC(O)C5)nc(OC[C@@]56CCCN5C[C@H](F)C6)nc4c3F)c12 [Example 219, 2-amino-4-(6-chloro-8-fluoro-2-(((2R,7aS)-2-fluorotetrahydro-1H-pyrrolizin-7a(5H)-yl)methoxy)-4-(3-hydroxyazetidin-1-yl)quinazolin-7-yl)-7-fluorobenzo[b]thiophene-3-carbonitrile]",–
49,45,5870,261,–,–,63,591,134,–,–,–,–,–,–,–,–,–,123,202,"COc1nc(OC[C@@]23CCCN2C[C@H](F)C3)nc2c(F)c(-c3ccc(F)c4sc(N)c(C#N)c34)c(Cl)cc12 [Example 220, 2-amino-4-(6-chloro-8-fluoro-2-(((2R,7aS)-2-fluorotetrahydro-1H-pyrrolizin-7a(5H)-yl)methoxy)-4-methoxyquinazolin-7-yl)-7-fluorobenzo[b]thiophene-3-carbonitrile]",–
145,86,6040,635,–,–,154,573,394,–,–,–,–,–,–,–,–,–,1240,962,"N#Cc1c(N)sc2c(F)ccc(-c3c(Cl)cc4c(N5CC(CO)C5)nc(OC[C@@]56CCCN5C[C@H](F)C6)nc4c3F)c12 [Example 221, 2-amino-4-(6-chloro-8-fluoro-2-(((2R,7aS)-2-fluorotetrahydro-1H-pyrrolizin-7a(5H)-yl)methoxy)-4-(3-(hydroxymethyl)azetidin-1-yl)quinazolin-7-yl)-7-fluorobenzo[b]thiophene-3-carbonitrile]",–
